Reference: PubChem BioAssay (NCI)
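Test compounds were applied to cells in 96-well plates for 48 hours at 5 doses. GI50 is the concentration that inhibits growth by half. TGI: total growth inhibition.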

What was measured:
Experiment in all cases: inhibition of tumour cell growth, NCI panel, 48 h
[1] = tested on: 786-0 renal
[2] = tested on: A498 renal
[3] = tested on: A549 NSCLC
[4] = tested on: ACHN renal
[5] = tested on: BT-549 breast
[6] = tested on: CAKI-1 renal
[7] = tested on: CCRF-CEM leukemia
[8] = tested on: COLO 205 colon
[9] = tested on: DU-145 prostate
[10] = tested on: EKVX NSCLC
[11] = tested on: HCC-2998 colon
[12] = tested on: HCT-116 colon
[13] = tested on: HCT-15 colon
[14] = tested on: HL-60(TB) leukemia
[15] = tested on: HOP-62 NSCLC
[16] = tested on: HOP-92 NSCLC
[17] = tested on: HS 578T breast
[18] = tested on: HT29 colon
[19] = tested on: IGROV1 ovarian
[20] = tested on: K-562 leukemia
[21] = tested on: KM12 colon
[22] = tested on: LOX IMVI melanoma
[23] = tested on: M14 melanoma
[24] = tested on: MALME-3M melanoma
[25] = tested on: MCF7 breast
[26] = tested on: MDA-MB-231 breast
[27] = tested on: MDA-MB-435
[28] = tested on: MOLT-4 leukemia
[29] = tested on: NCI-H226 lung
[30] = tested on: NCI-H23 lung
[31] = tested on: NCI-H460 lung
[32] = tested on: NCI-H522 lung
[33] = tested on: NCI/ADR-RES ovarian
[34] = tested on: OVCAR-3 ovarian
[35] = tested on: OVCAR-4 ovarian
[36] = tested on: OVCAR-5 ovarian
[37] = tested on: OVCAR-8 ovarian
[38] = tested on: PC-3 prostate
[39] = tested on: RPMI-8226 leukemia
[40] = tested on: RXF 393 renal
[41] = tested on: SF-268 CNS
[42] = tested on: SF-295 CNS
[43] = tested on: SF-539 CNS
[44] = tested on: SK-MEL-2 melanoma
[45] = tested on: SK-MEL-28 melanoma
[46] = tested on: SK-MEL-5 melanoma
[47] = tested on: SK-OV-3 ovarian
[48] = tested on: SN12C renal
[49] = tested on: SNB-19 CNS
[50] = tested on: SNB-75 CNS
[51] = tested on: SR leukemia
[52] = tested on: SW-620 colon
[53] = tested on: T-47D breast
[54] = tested on: TK-10 renal
[55] = tested on: U251 CNS
[56] = tested on: UACC-257 melanoma
[57] = tested on: UACC-62 melanoma
[58] = tested on: UO-31 renal

CC(O)c1cc(C(=O)N[C@@H](C)Cn2ccc(-c3ccc(C#N)c(Cl)c3)n2)n[nH]1 (stereo partly specified)
GI50 [1]: > 100 µM | TGI [1]: > 100 µM | GI50 [2]: 3.51 µM | TGI [2]: 55.9 µM | GI50 [3]: 85.4 µM | TGI [3]: > 100 µM | GI50 [4]: 82.5 µM | TGI [4]: > 100 µM | GI50 [5]: 19.7 µM | TGI [5]: 77.7 µM | GI50 [6]: 44.9 µM | TGI [6]: > 100 µM | GI50 [7]: 16.8 µM | TGI [7]: 39.9 µM | GI50 [8]: 54 µM | TGI [8]: > 100 µM | GI50 [9]: > 100 µM | TGI [9]: > 100 µM | GI50 [10]: 36.8 µM | TGI [10]: > 100 µM | GI50 [11]: > 100 µM | TGI [11]: > 100 µM | GI50 [12]: 45.7 µM | TGI [12]: > 100 µM | GI50 [13]: > 100 µM | TGI [13]: > 100 µM | GI50 [14]: 0.0272 µM | TGI [14]: 0.24 µM | GI50 [15]: > 100 µM | TGI [15]: > 100 µM | GI50 [16]: 26.5 µM | TGI [16]: > 100 µM | GI50 [17]: 62.7 µM | TGI [17]: > 100 µM | GI50 [18]: > 100 µM | TGI [18]: > 100 µM | GI50 [19]: 78.8 µM | TGI [19]: > 100 µM | GI50 [20]: 0.73 µM | TGI [20]: > 100 µM | GI50 [21]: 76.7 µM | TGI [21]: > 100 µM | GI50 [22]: 87.2 µM | TGI [22]: > 100 µM | GI50 [23]: 32.8 µM | TGI [23]: > 100 µM | GI50 [24]: 42.5 µM | TGI [24]: > 100 µM | GI50 [25]: 30.7 µM | TGI [25]: > 100 µM | GI50 [26]: 53.3 µM | TGI [26]: > 100 µM | GI50 [27]: 32.4 µM | TGI [27]: > 100 µM | GI50 [28]: 0.37 µM | TGI [28]: 5.15 µM | GI50 [29]: 58.5 µM | TGI [29]: > 100 µM | GI50 [30]: 76 µM | TGI [30]: > 100 µM | GI50 [31]: > 100 µM | TGI [31]: > 100 µM | GI50 [32]: 39.4 µM | TGI [32]: > 100 µM | GI50 [33]: > 100 µM | TGI [33]: > 100 µM | GI50 [34]: 47.3 µM | TGI [34]: > 100 µM | GI50 [35]: 16.3 µM | TGI [35]: > 100 µM | GI50 [36]: > 100 µM | TGI [36]: > 100 µM | GI50 [37]: 28.7 µM | TGI [37]: > 100 µM | GI50 [38]: 22.1 µM | TGI [38]: > 100 µM | GI50 [39]: 15.3 µM | TGI [39]: 80.6 µM | GI50 [40]: > 100 µM | TGI [40]: > 100 µM | GI50 [41]: > 100 µM | TGI [41]: > 100 µM | GI50 [42]: 23.9 µM | TGI [42]: > 100 µM | GI50 [43]: > 100 µM | TGI [43]: > 100 µM | GI50 [44]: 46.6 µM | TGI [44]: > 100 µM | GI50 [45]: 72.8 µM | TGI [45]: > 100 µM | GI50 [46]: 15.2 µM | TGI [46]: 48.3 µM | GI50 [47]: > 100 µM | TGI [47]: > 100 µM | GI50 [48]: 48.7 µM | TGI [48]: > 100 µM | GI50 [49]: > 100 µM | TGI [49]: > 100 µM | GI50 [50]: 52.4 µM | TGI [50]: > 100 µM | GI50 [51]: 8.06 µM | TGI [51]: > 100 µM | GI50 [52]: > 100 µM | TGI [52]: > 100 µM | GI50 [53]: 13.2 µM | TGI [53]: 87.8 µM | GI50 [54]: > 100 µM | TGI [54]: > 100 µM | GI50 [55]: > 100 µM | TGI [55]: > 100 µM | GI50 [56]: 27.5 µM | TGI [56]: > 100 µM | GI50 [57]: 34.3 µM | TGI [57]: > 100 µM | GI50 [58]: 35.1 µM | TGI [58]: > 100 µM
